According to patent publication US20240150293A1, “SPIROCYCLOHEXANE DERIVATIVES, PHARMACEUTICAL COMPOSITIONS CONTAINING THEM AND THEIR USES AS ANTI-APOPTOTIC INHIBITORS” (LES LABORATOIRES SERVIER, priority 2021, published 2024):
Read-outs that look alike come from different tables or passages of the source.

Legend:
[1] = test system: H929 multiple myeloma tumor line; test: In vitro cytotoxicity, MTT assay (Example B, Method A); type: cell-based; conditions: H929 cells, 48 hours exposure, read-out: C50
Method: The cytotoxicity studies were carried out on the H929 multiple myeloma tumor line.
The cells are distributed onto microplates and exposed to the test compounds for 48 hours. The cell viability is then quantified by a colorimetric assay, the Microculture Tetrazolium Assay (Carmichael et al, Cancer Res. 1987, 47, 939-942).
The results are expressed in C50 which means concentration corresponding to […] of effect/inhibition.

[2] = biological target: Cy5-labelled Mcl1 (amino acids 171-321) C286S protein (UniProtKB Q07820) (Homo sapiens (Human), UniProt Q07820, C286S); test: Inhibition of Mcl-1 by the fluorescence quenching assay (Example A, Method B); type: binding
Cy5-labelled Mcl1 (amino acids 171-321) C286S protein, sequence (Q07820 171-321 C286S): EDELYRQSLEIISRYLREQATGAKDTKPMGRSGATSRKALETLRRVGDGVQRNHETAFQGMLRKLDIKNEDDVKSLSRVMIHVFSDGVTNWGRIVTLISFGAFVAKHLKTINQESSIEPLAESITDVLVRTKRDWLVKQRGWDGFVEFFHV
How it was run: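 Cy5-labelled Mcl1 171-321 C286S (1 nM) quenched by TQ5WS-labelled PUMA peptide (10, 20 or 400 nM); displacement raises fluorescence (Ex 620/Em 680 nm). Buffer 10 mM HEPES, 150 mM NaCl, 0.05% Tween 20, pH 7.4, 5% DMSO; 2 h at room temperature, 11-point curves, IC50 converted to Ki (cKi/eKi).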

Compound | Ki [2] | IC50 ([1]; Homo sapiens, NCI-H929, 48 h) | IC50 [1]
COc1ccc2c(c1)[C@]1(CC[C@@](Nc3cccc(Cl)c3)(C(=O)O)CC1)[C@@H](C[C@@H](C)COc1ccnc3c1[C@@H](C)CCC3)C2 [Example 783, (1r,2′S,4S)-4-(3-chloroanilino)-6′-methoxy-2′-[(2R)-2-methyl-3-{[(5S)-5-methyl-5,6,7,8-tetrahydroquinolin-4-yl]oxy}propyl]-2′,3′-dihydrospiro[cyclohexane-1,1′-indene]-4-carboxylic acid] | 10.3 nM | 430 nM | 
C[C@@H](COc1ccnc2c1CCC2)C[C@H]1Cc2ccccc2[C@]12CC[C@@](Nc1cccc(Cl)c1)(C(=O)O)CC2 [Example 599, (1r,2′S,4S)-4-(3-chloroanilino)-2′-{(2R)-3-[(6,7-dihydro-5H-cyclopenta[b]pyridin-4-yl)oxy]-2-methylpropyl}-2′,3′-dihydrospiro[cyclohexane-1,1′-indene]-4-carboxylic acid] | 1.05 nM | 237 nM | 
O=C(O)[C@]1(Nc2cccc(Cl)c2)CC[C@@]2(CC1)c1ccccc1CC2CC(COc1ccnc2ccsc12)C(F)F (stereo partly shown) [Example 511, (1r,4r)-4-(3-chloroanilino)-2′-(3,3-difluoro-2-{[(thieno[3,2-b]pyridin-7-yl)oxy]methyl}propyl)-2′,3′-dihydrospiro[cyclohexane-1,1′-indene]-4-carboxylic acid] | 19.9 nM | 2720 nM | 
C[C@@H](COc1ccnc2c1[C@H](C)CCC2)CC1=Cc2ccccc2[C@]12CC[C@@](Nc1cccc(Cl)c1)(C(=O)O)CC2 [Example 646, (1r,4R)-4-(3-chloroanilino)-2′-[(2R)-2-methyl-3-{[(5R)-5-methyl-5,6,7,8-tetrahydroquinolin-4-yl]oxy}propyl]spiro[cyclohexane-1,1′-indene]-4-carboxylic acid] | 0.593 nM | 148 nM | 
CC(=O)c1ccc2c(c1)[C@]1(CC[C@@](Nc3cccc(Cl)c3)(C(=O)O)CC1)[C@@H](C[C@@H](C)COc1ccnc3c1[C@H](C)CCC3)C2 [Example 858, (1r,2′S,4S)-6′-acetyl-4-(3-chloroanilino)-2′-[(2R)-2-methyl-3-{[(5R)-5-methyl-5,6,7,8-tetrahydroquinolin-4-yl]oxy}propyl]-2′,3′-dihydrospiro[cyclohexane-1,1′-indene]-4-carboxylic acid] | 0.0699 nM | 50.6 nM | 
C[C@@H](COc1ccnc2c1CCCC2)C[C@H]1Cc2ccccc2[C@]12CC[C@@](Nc1cccc(Cl)c1)(C(=O)O)CC2 [Example 645, (1r,4R)-4-(3-chloroanilino)-2′-{(2R)-2-methyl-3-[(5,6,7,8-tetrahydroquinolin-4-yl)oxy]propyl}-2′,3′-dihydrospiro[cyclohexane-1,1′-indene]-4-carboxylic acid] | 4.04 nM | 617 nM | 
C[C@@H](COc1ccnc2c1[C@H](C)CCC2)CC1=Cc2cc(Cl)ccc2[C@]12CC[C@@](Nc1cccc(Cl)c1)(C(=O)O)CC2 [Example 777, (1r,4R)-5′-chloro-4-(3-chloroanilino)-2′-[(2R)-2-methyl-3-{[(5R)-5-methyl-5,6,7,8-tetrahydroquinolin-4-yl]oxy}propyl]spiro[cyclohexane-1,1′-indene]-4-carboxylic acid] | 0.725 nM | 175 nM | 
CC(O)c1ccc2c(c1)[C@]1(CC[C@@](Nc3cccc(Cl)c3)(C(=O)O)CC1)[C@@H](C[C@@H](C)COc1ccnc3c1[C@H](C)CC[C@H]3O)C2 (single isomer, unassigned) [Example 862] | 0.113 nM |  | 73.8 nM
C[C@@H](COc1ccnc2c1[C@H](C)CCC2)C[C@H]1Cc2ccccc2[C@]12CC[C@@](Nc1ccc(F)c(Br)c1)(C(=O)O)CC2 [Example 712, (1r,2′S,4S)-4-(3-bromo-4-fluoroanilino)-2′-[(2R)-2-methyl-3-{[(5R)-5-methyl-5,6,7,8-tetrahydroquinolin-4-yl]oxy}propyl]-2′,3′-dihydrospiro[cyclohexane-1,1′-indene]-4-carboxylic acid] | 0.439 nM | 74 nM | 
C[C@@H](COc1ccnc2c1[C@H](C)CCC2)C[C@H]1Cc2ccc(Oc3ccccc3)cc2[C@]12CC[C@@](Nc1cccc(Cl)c1)(C(=O)O)CC2 [Example 793, (1r,2′S,4S)-4-(3-chloroanilino)-2′-[(2R)-2-methyl-3-{[(5S)-5-methyl-5,6,7,8-tetrahydroquinolin-4-yl]oxy}propyl]-6′-phenoxy-2′,3′-dihydrospiro[cyclohexane-1,1′-indene]-4-carboxylic acid] | 17.9 nM | 857 nM | 
Cc1cc(C(C)O)cc2c1C=C(C[C@@H](C)COc1ccnc3c1[C@H](C)CCC3)[C@]21CC[C@](Nc2cccc(Cl)c2)(C(=O)O)CC1 (single isomer, unassigned) [Example 759] | 0.303 nM |  | 185 nM
C[C@@H](COc1ccnc2c1[C@H](C)CCC2)C[C@H]1Cc2ccc(C=O)cc2[C@]12CC[C@@](Nc1cccc(Cl)c1)(C(=O)O)CC2 [Example 867, (1r,2′S,4S)-4-(3-chloroanilino)-6′-formyl-2′-[(2R)-2-methyl-3-{[(5R)-5-methyl-5,6,7,8-tetrahydroquinolin-4-yl]oxy}propyl]-2′,3′-dihydrospiro[cyclohexane-1,1′-indene]-4-carboxylic acid] | 0.0988 nM | 73 nM | 
CC(C)c1cnccc1OC[C@H](C)C[C@H]1Cc2ccccc2[C@]12CC[C@@](Nc1cccc(Cl)c1)(C(=O)O)CC2 [Example 587, (1r,2′S,4S)-4-(3-chloroanilino)-2′-[(2R)-2-methyl-3-{[3-(propan-2-yl)pyridin-4-yl]oxy}propyl]-2′,3′-dihydrospiro[cyclohexane-1,1′-indene]-4-carboxylic acid] | 3.93 nM | 679 nM | 
C[C@@H](COc1ccnc2c1[C@H](C)CCC2)C[C@H]1Cc2ccc(F)cc2[C@]12CC[C@@](Nc1cccc(Cl)c1)(C(=O)O)CC2 [Example 765, (1r,2′S,4S)-4-(3-chloroanilino)-6′-fluoro-2′-[(2R)-2-methyl-3-{[(5R)-5-methyl-5,6,7,8-tetrahydroquinolin-4-yl]oxy}propyl]-2′,3′-dihydrospiro[cyclohexane-1,1′-indene]-4-carboxylic acid] | 0.661 nM | 210 nM | 

Now from value to compound, other results behind:

Ki [2] | Compound | IC50 ([1]; Homo sapiens, NCI-H929, 48 h) | IC50 [1]
1.85 nM | C[C@@H](COc1ccnc2c1C(F)CCC2)C[C@H]1Cc2ccccc2[C@]12CC[C@@](Nc1cccc(Cl)c1)(C(=O)O)CC2 (single isomer, unassigned) [Example 686] |  | 442 nM
5.54 nM | CC1CCc2c(OC[C@H](C)C[C@H]3Cc4ccccc4[C@]34CC[C@@](Nc3cccc(Cl)c3)(C(=O)O)CC4)ccnc2C1 (stereo partly drawn) [Example 650, (1r,2′S,4S)-4-(3-chloroanilino)-2′-{(2R)-2-methyl-3-[(7-methyl-5,6,7,8-tetrahydroquinolin-4-yl)oxy]propyl}-2′,3′-dihydrospiro[cyclohexane-1,1′-indene]-4-carboxylic acid] | 912 nM | 
1.46 nM | C[C@@H](COc1ccnc2c1[C@H](C)CC[C@H]2F)C[C@H]1Cc2ccccc2[C@]12CC[C@@](Nc1cccc(Cl)c1)(C(=O)O)CC2 [Example 689, (1r,2′S,4S)-4-(3-chloroanilino)-2′-[(2R)-3-{[(5R,8R)-8-fluoro-5-methyl-5,6,7,8-tetrahydroquinolin-4-yl]oxy}-2-methylpropyl]-2′,3′-dihydrospiro[cyclohexane-1,1′-indene]-4-carboxylic acid] | 117 nM | 
980 nM | Cc1cn(C[C@H](C)C[C@H]2Cc3ccccc3[C@]23CC[C@@](Nc2cccc(Cl)c2)(C(=O)O)CC3)c2c(c1=O)C(C)CCC2 (single isomer, unassigned) [Example 640] |  | 18100 nM
7.03 nM | Cc1cncc(C)c1OC[C@H](C)C[C@H]1Cc2ccccc2[C@]12CC[C@@](Nc1cccc(Cl)c1)(C(=O)O)CC2 [Example 584, (1r,2′S,4S)-4-(3-chloroanilino)-2′-{(2R)-3-[(3,5-dimethylpyridin-4-yl)oxy]-2-methylpropyl}-2′,3′-dihydrospiro[cyclohexane-1,1′-indene]-4-carboxylic acid] | 1760 nM | 
1.51 nM | C[C@@H]1CCCc2nccc(OCC(F)CC3Cc4ccccc4[C@]34CC[C@@](Nc3cccc(Cl)c3)(C(=O)O)CC4)c21 (single isomer, unassigned) [Example 510] |  | 252 nM
37.2 nM | Cc1cn(C[C@H](C)C[C@H]2Cc3ccccc3[C@]23CC[C@@](Nc2cccc(Cl)c2)(C(=O)O)CC3)c2c(c1=O)C(C)CCC2 (single isomer, unassigned) [Example 639] | 12600 nM | 
2.09 nM | C[C@@H](COc1ccnc2c1CCC[C@@H]2F)C[C@H]1Cc2ccccc2[C@]12CC[C@@](Nc1cccc(Cl)c1)(C(=O)O)CC2 [Example 680, (1r,2′S,4S)-4-(3-chloroanilino)-2′-[(2R)-3-{[(8S)-8-fluoro-5,6,7,8-tetrahydroquinolin-4-yl]oxy}-2-methylpropyl]-2′,3′-dihydrospiro[cyclohexane-1,1′-indene]-4-carboxylic acid] | 687 nM | 
4.25 nM | C[C@@H](COc1ccnc2c1[C@@H](C)CC[C@H]2F)C[C@H]1Cc2ccccc2[C@]12CC[C@@](Nc1cccc(Cl)c1)(C(=O)O)CC2 [Example 687, (1r,2′S,4S)-4-(3-chloroanilino)-2′-[(2R)-3-{[(5R,8S)-8-fluoro-5-methyl-5,6,7,8-tetrahydroquinolin-4-yl]oxy}-2-methylpropyl]-2′,3′-dihydrospiro[cyclohexane-1,1′-indene]-4-carboxylic acid] | 600 nM | 
